From the supplement of paper PMC10627819

What was measured:
B. subtilis 168 [1] = assay: fitness (endpoint OD595 vs no drug) (fraction); higher = more growth
Method in brief: (§1)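 Fitness was defined as the optical density at the transition into stationary phase relative to the robust mean of no-drug control wells. Values were capped at 1. Cultures were started at OD595 0.01 in 384-well plates (30 µl, or 55 µl for S. pneumoniae) in TSB, LB Lennox or CY at 37 °C. OD595 was recorded every 30 min over 14 h, with the first reading subtracted as background.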

S. aureus DSM 20231 [2] = assay: as above
Method in brief: as §1

S. aureus Newman [3] = assay: as above
Method in brief: as §1

S. pneumoniae D39V [4] = assay: as above
Method in brief: as §1

B. subtilis 168 [5] = assay: Bliss interaction score (quartile over a dose matrix) (fitness difference); higher = more antagonism (negative = synergy)
Method in brief: (§2)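 The Bliss score is observed minus expected fitness under the product model, reported as quartiles over technical, biological and donor/recipient replicates. Fitness is the OD595 at entry into stationary phase divided by the plate's robust no-drug mean and capped at 1. Single-drug fitness was inferred from combination data.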

S. aureus DSM 20231 [6] = assay: as above
Method in brief: as §2

S. aureus Newman [7] = assay: as above
Method in brief: as §2

S. pneumoniae D39V [8] = assay: as above
Method in brief: as §2
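Throughout, for Bliss interaction score (quartile over a dose matrix): first quartile when negative (synergy) and third quartile when positive (antagonism).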

C[C@@H]1O[C@@H]1P(=O)(O)O [Fosfomycin] + COc1c(N2C[C@@H]3CCCN[C@@H]3C2)c(F)cc2c(=O)c(C(=O)O)cn(C3CC3)c12 [Moxifloxacin]
Conditions | fitness
B. subtilis 168 [1], first compound 1.562 µg/mL, partner 0.0312 µg/mL | 0.0743
B. subtilis 168 [1], first compound 1.562 µg/mL, partner 0.0625 µg/mL | 0.0627
B. subtilis 168 [1], first compound 1.562 µg/mL, partner 0.125 µg/mL | 0.0277
B. subtilis 168 [1], first compound 1.562 µg/mL, partner 2 µg/mL | 0.0303
B. subtilis 168 [1], first compound 1.562 µg/mL, partner 4 µg/mL | 0.0293
B. subtilis 168 [1], first compound 1.562 µg/mL, partner 8 µg/mL | 0.0076
B. subtilis 168 [1], first compound 3.124 µg/mL, partner 0.0312 µg/mL | 0.0504
B. subtilis 168 [1], first compound 3.124 µg/mL, partner 0.0625 µg/mL | 0.0309
B. subtilis 168 [1], first compound 3.124 µg/mL, partner 0.125 µg/mL | 0.0339
B. subtilis 168 [1], first compound 3.124 µg/mL, partner 2 µg/mL | 0.033
B. subtilis 168 [1], first compound 3.124 µg/mL, partner 4 µg/mL | 0.0332
B. subtilis 168 [1], first compound 3.124 µg/mL, partner 8 µg/mL | 0.0176
B. subtilis 168 [1], first compound 6.248 µg/mL, partner 0.0312 µg/mL | 0.0469
B. subtilis 168 [1], first compound 6.248 µg/mL, partner 0.0625 µg/mL | 0.0265
B. subtilis 168 [1], first compound 6.248 µg/mL, partner 0.125 µg/mL | 0.0207
B. subtilis 168 [1], first compound 6.248 µg/mL, partner 2 µg/mL | 0.016
B. subtilis 168 [1], first compound 6.248 µg/mL, partner 4 µg/mL | 0.0083
B. subtilis 168 [1], first compound 6.248 µg/mL, partner 8 µg/mL | 0.0062
S. aureus DSM 20231 [2], first compound 0.781 µg/mL, partner 0.0075 µg/mL | 0.629
S. aureus DSM 20231 [2], first compound 0.781 µg/mL, partner 0.015 µg/mL | 0.609
S. aureus DSM 20231 [2], first compound 0.781 µg/mL, partner 0.03 µg/mL | 0.606
S. aureus DSM 20231 [2], first compound 1.562 µg/mL, partner 0.0075 µg/mL | 0.592
S. aureus DSM 20231 [2], first compound 1.562 µg/mL, partner 0.015 µg/mL | 0.564
S. aureus DSM 20231 [2], first compound 1.562 µg/mL, partner 0.03 µg/mL | 0.538
S. aureus DSM 20231 [2], first compound 3.124 µg/mL, partner 0.0075 µg/mL | 0.493
S. aureus DSM 20231 [2], first compound 3.124 µg/mL, partner 0.015 µg/mL | 0.455
S. aureus DSM 20231 [2], first compound 3.124 µg/mL, partner 0.03 µg/mL | 0.299
S. aureus Newman [3], first compound 0.781 µg/mL, partner 0.0075 µg/mL | 0.587
S. aureus Newman [3], first compound 0.781 µg/mL, partner 0.015 µg/mL | 0.509
S. aureus Newman [3], first compound 0.781 µg/mL, partner 0.03 µg/mL | 0.0675
S. aureus Newman [3], first compound 1.562 µg/mL, partner 0.0075 µg/mL | 0.413
S. aureus Newman [3], first compound 1.562 µg/mL, partner 0.015 µg/mL | 0.358
S. aureus Newman [3], first compound 1.562 µg/mL, partner 0.03 µg/mL | 0.0359
S. aureus Newman [3], first compound 3.124 µg/mL, partner 0.0075 µg/mL | 0.0916
S. aureus Newman [3], first compound 3.124 µg/mL, partner 0.015 µg/mL | 0.0267
S. aureus Newman [3], first compound 3.124 µg/mL, partner 0.03 µg/mL | 0.015
S. pneumoniae D39V [4], first compound 1.25 µg/mL, partner 0.005 µg/mL | 0.985
S. pneumoniae D39V [4], first compound 1.25 µg/mL, partner 0.01 µg/mL | 0.988
S. pneumoniae D39V [4], first compound 1.25 µg/mL, partner 0.02 µg/mL | 0.924
S. pneumoniae D39V [4], first compound 1.25 µg/mL, partner 0.0312 µg/mL | 0.139
S. pneumoniae D39V [4], first compound 1.25 µg/mL, partner 0.0625 µg/mL | 0.0679
S. pneumoniae D39V [4], first compound 1.25 µg/mL, partner 0.125 µg/mL | 0.0548
S. pneumoniae D39V [4], first compound 2.5 µg/mL, partner 0.005 µg/mL | 0.93
S. pneumoniae D39V [4], first compound 2.5 µg/mL, partner 0.01 µg/mL | 0.983
S. pneumoniae D39V [4], first compound 2.5 µg/mL, partner 0.02 µg/mL | 0.903
S. pneumoniae D39V [4], first compound 2.5 µg/mL, partner 0.0312 µg/mL | 0.12
S. pneumoniae D39V [4], first compound 2.5 µg/mL, partner 0.0625 µg/mL | 0.0706
S. pneumoniae D39V [4], first compound 2.5 µg/mL, partner 0.125 µg/mL | 0.0382
S. pneumoniae D39V [4], first compound 5 µg/mL, partner 0.005 µg/mL | 0.808
S. pneumoniae D39V [4], first compound 5 µg/mL, partner 0.01 µg/mL | 0.88
S. pneumoniae D39V [4], first compound 5 µg/mL, partner 0.02 µg/mL | 0.855
S. pneumoniae D39V [4], first compound 5 µg/mL, partner 0.0312 µg/mL | 0.106
S. pneumoniae D39V [4], first compound 5 µg/mL, partner 0.0625 µg/mL | 0.0921
S. pneumoniae D39V [4], first compound 5 µg/mL, partner 0.125 µg/mL | 0.0302

fitness, S. aureus DSM 20231 [2], one replicate
Conditions | first compound 0.781 µg/mL | first compound 1.562 µg/mL | first compound 3.124 µg/mL
partner 0.06 µg/mL | 0.655 | 0.585 | 0.465
partner 0.12 µg/mL | 0.46 | 0.403 | 0.247

Conditions | Bliss interaction score
B. subtilis 168 [5] | -0.0148
S. aureus DSM 20231 [6] | 0.0661
S. aureus Newman [7] | -0.0851
S. pneumoniae D39V [8] | 0.0534

CO/N=C(\C(=O)N[C@@H]1C(=O)N2C(C(=O)O)=C(COC(C)=O)CS[C@H]12)c1csc(N)n1 [Cefotaxime] + CCN(CC)CCOC(=O)c1ccc(N)cc1 [Procaine]
fitness, one replicate
Conditions | partner 85.5 µg/mL | partner 171 µg/mL | partner 342 µg/mL
B. subtilis 168 [1], first compound 0.00775 µg/mL | 0.834 | 0.848 | 0.811
B. subtilis 168 [1], first compound 0.0155 µg/mL | 0.701 | 0.691 | 0.64
B. subtilis 168 [1], first compound 0.031 µg/mL | 0.583 | 0.572 | 0.561
S. aureus DSM 20231 [2], first compound 0.039 µg/mL | 0.632 | 0.766 | 0.762
S. aureus Newman [3], first compound 0.078 µg/mL | 0.608 | 0.612 | 0.595
S. aureus Newman [3], first compound 0.156 µg/mL | 0.454 | 0.459 | 0.438
S. aureus Newman [3], first compound 0.312 µg/mL | 0.276 | 0.255 | 0.264

fitness
Conditions | partner 85.5 µg/mL | partner 171 µg/mL | partner 342 µg/mL
B. subtilis 168 [1], first compound 0.5 µg/mL | 0.243 | 0.225 | 0.259
B. subtilis 168 [1], first compound 1 µg/mL | 0.165 | 0.125 | 0.169
B. subtilis 168 [1], first compound 2 µg/mL | 0.0861 | 0.0682 | 0.118
S. aureus DSM 20231 [2], first compound 0.078 µg/mL | 0.721 | 0.786 | 0.77
S. aureus DSM 20231 [2], first compound 0.156 µg/mL | 0.62 | 0.703 | 0.712
S. aureus DSM 20231 [2], first compound 0.312 µg/mL | 0.579 | 0.67 | 0.664
S. aureus Newman [3], first compound 0.625 µg/mL | 0.169 | 0.111 | 0.139
S. aureus Newman [3], first compound 1.25 µg/mL | 0.0581 | 0.0383 | 0.0412
S. aureus Newman [3], first compound 2.5 µg/mL | 0.0238 | 0.0269 | 0.0485
S. pneumoniae D39V [4], first compound 0.0018 µg/mL | ≥ 1 | ≥ 1 | ≥ 1
S. pneumoniae D39V [4], first compound 0.0035 µg/mL | 0.954 | ≥ 1 | 0.945
S. pneumoniae D39V [4], first compound 0.007 µg/mL | 0.904 | 0.92 | 0.844

Conditions | Bliss interaction score
B. subtilis 168 [5] | 0.0852
S. aureus DSM 20231 [6] | -0.0909
S. aureus Newman [7] | -0.0467
S. pneumoniae D39V [8] | -0.0264
